Consider 94 compounds from PubChem BioAssay AID1508612.

The data set in a line: passive permeability, PAMPA, ADME assay (AID 1508612). The settings on record: pH 7.4, 30.0 min, 50.0 µM. (In general: The PAMPA barrier holds no transporters, so it reflects passive diffusion.)

In general, Papp refers to a coefficient for how fast a substance crosses the barrier.

`CCc1ccc2oc(NC3=NC(c4[nH]ncc4Cl)C4=C(CCCC4=O)N3)nc2c1` (centres undefined) had a Papp of 916 ×10⁻⁶ cm/s.
In the case of `CCOc1ccc(CCNC(=O)c2cc3sccc3n2CCN2CCOCC2)cc1OCC`, the Papp is above 1000 ×10⁻⁶ cm/s.
In the case of `O=C(Nc1ccccc1)C1CC(=O)N(c2n[nH]c3cc(Br)ccc23)C1` (centres undefined), the Papp stood at 1.1 ×10⁻⁶ cm/s.
`Nc1nc(Nc2ccc(S(N)(=O)=O)cc2)nn1C(=O)c1c(F)cccc1F`: the Papp was 1.61 ×10⁻⁶ cm/s. This Papp and that of the compound before are within 1.5-fold of each other.
In the case of `CNc1oc(-c2cccc3ccccc23)nc1C#N`, the Papp worked out at 723 ×10⁻⁶ cm/s.
`Cc1ccc(-c2csc(NC(=O)c3ccccc3NS(=O)(=O)c3ccc(C)cc3)n2)cc1` returned a Papp of 35.6 ×10⁻⁶ cm/s.
For `Cc1ccc(S(=O)(=O)Nc2cnccc2C(=O)Nc2nc(C3CCC3)cs2)cc1` the value was 497 ×10⁻⁶ cm/s; for `Fc1ccc(CNc2ncnc3onc(-c4ccc(F)cc4)c23)cc1`, above 1000 ×10⁻⁶ cm/s.
In the case of `CC(=O)c1c(C)[nH]c(C(=O)Nc2cccc([S+](=O)([O-])Nc3ccc(C#N)cc3)c2)c1C`, the Papp is 178 ×10⁻⁶ cm/s.
In turn, `Cc1ccc(S(=O)(=O)Nc2cnccc2C(=O)Nc2nc(-c3cccc(F)c3)cs2)cc1` yielded a Papp of 153 ×10⁻⁶ cm/s.
In turn, `Cc1nn2c(c1-c1ccccc1-c1ccccc1)N(CCC(C)C)CCC2` gave an apparent permeability (Papp) of 532 ×10⁻⁶ cm/s.
In turn, `CC1=Nc2cc(C(=O)NCc3ccccc3Cl)ccc2Sc2c(C)ccc(C)c21` yielded a Papp of 161 ×10⁻⁶ cm/s.
Regarding `CC1CCc2cc(F)ccc2N1C(=O)CSc1nnc2c(n1)[nH]c1ccccc12` (centres undefined), the Papp was above 1000 ×10⁻⁶ cm/s.
For the compound `COC(=O)CNC(=O)c1nc(-c2ccc(Cl)cc2Cl)c2cnccn12`, the Papp is above 1000 ×10⁻⁶ cm/s.
`CCOC(=O)C1=C(C)NC(=O)CC1C(=O)Nc1cc(Cl)cc(Cl)c1` (centres undefined) gave a Papp of 599 ×10⁻⁶ cm/s.
With `Cc1ccc(S(=O)(=O)Nc2cc(C(=O)Nc3nc(-c4ccccc4)cs3)ccn2)cc1`, the Papp was 259 ×10⁻⁶ cm/s. This Papp lies about 2.3-fold lower than the previous one.
As to `Nc1ccccc1CNc1ccc(S(=O)(=O)Nc2nccs2)cc1`, the Papp turned out to be 1.09 ×10⁻⁶ cm/s.
For `CNc1oc(-c2ccc(-c3ccccc3)cc2)nc1C#N` the value was above 1000 ×10⁻⁶ cm/s; for `Cc1cccc(CN2CCN(c3ccccn3)CC2)c1`, above 1000 ×10⁻⁶ cm/s.
Regarding `COc1cccc(CNc2ccc(S(=O)(=O)Nc3ncccn3)cc2)c1O`, the Papp came out at 31.5 ×10⁻⁶ cm/s.
The compound `Cc1[nH]c2ccccc2c1CN1CCN(c2ccccn2)CC1` gave a Papp above 1000 ×10⁻⁶ cm/s.
In turn, `CN(Cc1ccccc1)C(=O)C1CCN(Cc2cccc3ccccc23)CC1` gave a Papp above 1000 ×10⁻⁶ cm/s.
With `CCOc1ccc(CCNC(=O)c2cc3sccc3n2C)cc1OCC`, the apparent permeability coefficient (Papp) is above 1000 ×10⁻⁶ cm/s.
As for `COc1ccc(-n2nc(C3CCN(C(=O)c4ccccc4)CC3)[nH]c2=O)cc1`, the apparent permeability (Papp) was determined as 331 ×10⁻⁶ cm/s.
`Cc1noc(C)c1-c1cc(-c2ccc3c(c2)C(=O)NC3)cn2cncc12` returned a Papp of 143 ×10⁻⁶ cm/s.
Consider `CN(C)[C@@H]1CCN(c2cccc(Nc3nn4c(=O)c5ccccc5nc4s3)c2)C1`, for which the Papp amounted to 125 ×10⁻⁶ cm/s.
For `Cc1nc2nc(NC(=O)c3ccc(C(C)(C)C)cc3)[nH]n2c(=O)c1Cl` the value was 8.91 ×10⁻⁶ cm/s; for `COc1cc(-c2nc(-c3ccccc3)c(-c3cccs3)[nH]2)cc(OC)c1O`, 530 ×10⁻⁶ cm/s; for `Cn1cncc1[C@@](N)(c1ccc(Cl)cc1)c1ccc2c(c1)c(-c1cccc(Cl)c1)cc(=O)n2C`, above 1000 ×10⁻⁶ cm/s.
`Cc1noc(C)c1C(=O)N1CCC2(CC1)CCN(C(c1ccccc1)c1ccccc1)CC2` showed an apparent permeability coefficient (Papp) above 1000 ×10⁻⁶ cm/s.
For `CCOC(=O)C1CCN(C(=O)C(C)(C)NC(=O)Nc2ccc(Cl)cc2Cl)CC1` the value was 725 ×10⁻⁶ cm/s; for `CC(=O)c1ccc(N2CCN(S(=O)(=O)c3ccc4c(c3)CC(=O)N4)CC2)cc1`, 429 ×10⁻⁶ cm/s.
The compound `CCCCOC(=O)c1ccnc2cc(C(OCCN3CCCCC3)c3ccccc3Cl)sc12` (centres undefined) registered a Papp of 828 ×10⁻⁶ cm/s.
As for `CCOC(=O)c1nc(Nc2ccc(N3CCC(C)CC3)cc2)c2ccccc2n1`, the Papp was above 1000 ×10⁻⁶ cm/s.
As to `COCCNC(=O)c1ccc(Cn2c(=S)[nH]c3cc4c(cc3c2=O)OCO4)cc1`, the Papp is 108 ×10⁻⁶ cm/s.
The compound `COCCCOc1ccnc(CS(=O)c2nc3ccccc3[nH]2)c1C` (centres undefined) displayed a Papp of 212 ×10⁻⁶ cm/s.
With `Cc1ccc(C(=O)Nc2cccc(C(F)(F)F)c2)cc1Nc1nc(-c2cccnc2)nc2c1cnn2C`, the apparent permeability (Papp) was determined as 283 ×10⁻⁶ cm/s.
For `CNc1oc(-c2cccc(-c3ccccc3)c2)nc1C#N`, the Papp was 918 ×10⁻⁶ cm/s.
In turn, `Fc1ccc(Nc2nc(-c3ccccc3)cc(-c3ccncc3)n2)cc1F` had a Papp below 1 ×10⁻⁶ cm/s.
On to `CSc1nnc2c3ccccc3n(CCc3ccccc3)c2n1`, for which the Papp was above 1000 ×10⁻⁶ cm/s.
The figure for `CCc1ccc(C2C(C(=O)Nc3ccccc3OC)=C(C)Nc3c(C(=O)Nc4ccc(C)cc4)cnn32)cc1` (centres undefined) is 547 ×10⁻⁶ cm/s.
As to `Cc1ccc(S(=O)(=O)Nc2ccccc2C(=O)Nc2ncc(-c3ccccc3)s2)cc1`, the Papp is 125 ×10⁻⁶ cm/s.
Turning to `COc1cccc(CC(=O)Nc2nc(-c3ccc4c(c3)CCN4C(=O)c3ccccc3C)c(C)s2)c1`, the Papp was 674 ×10⁻⁶ cm/s.
For `O=C(Nc1nnc(-c2ccco2)o1)c1ccc(Cl)cc1` the value was 24.2 ×10⁻⁶ cm/s; for `CC(C)CNc1ncnc2onc(-c3ccc(Cl)cc3)c12`, above 1000 ×10⁻⁶ cm/s; for `NC1CCN(C(=O)C2CCCN(c3nc(-c4ccccc4)nc4c3CCC4)C2)CC1` (centres undefined), 475 ×10⁻⁶ cm/s.
For `COc1cc2c(Oc3ccc(-c4cnc(Nc5ccc(F)cc5)n(C)c4=O)cc3F)ccnc2cc1OCCCN1CCOCC1` the value was 92.9 ×10⁻⁶ cm/s; for `Cc1nc2sccn2c(=O)c1S(=O)(=O)Nc1ccc(N2CCN(C)CC2)cc1`, 289 ×10⁻⁶ cm/s; for `CS(=O)(=O)c1ccc(-c2cnc(NCc3ccco3)n3cnnc23)cc1`, 16.7 ×10⁻⁶ cm/s.
Turning to `COc1ccc(OC)c(-n2c3c(cc(-c4nc(-c5ccc(Cl)cc5)cs4)c2=O)C(=O)CC(C)(C)C3)c1`, the Papp stood at 216 ×10⁻⁶ cm/s. Against the preceding compound, the Papp is about 13-fold higher.
The figure for `CCNc1oc(-c2cccc3ccccc23)nc1C#N` is 728 ×10⁻⁶ cm/s.
The compound `Cc1nn(Cc2ccc(Cl)cc2)c(C)c1NC(=O)c1cc(-c2ccc3c(c2)OCO3)on1` yielded a Papp of 836 ×10⁻⁶ cm/s.
Turning to `COc1ccc(Cn2c(C(=O)O)c(CNCc3ccco3)c3ccc(C)cc32)cc1`, the Papp was found to be 654 ×10⁻⁶ cm/s.
`CC(C)C[C@H]1C(=O)N2CCC[C@H]2[C@]2(O)O[C@](NC(=O)[C@@H]3C=C4c5cccc6[nH]c(Br)c(c56)C[C@H]4N(C)C3)(C(C)C)C(=O)N12` yielded a Papp of 876 ×10⁻⁶ cm/s. This Papp and that of the compound before are within 1.5-fold of each other.
The figure for `COc1ccc(NC(=O)c2[nH]c(C)c(C(C)=O)c2C)cc1` is 377 ×10⁻⁶ cm/s.
For `COc1cccc(-c2nc(-c3cc4cc(OC)ccc4[nH]c3=O)no2)c1` the value was above 1000 ×10⁻⁶ cm/s; for `O=C1Nc2ccccc2/C1=C/c1ccc[nH]1`, 606 ×10⁻⁶ cm/s.
In turn, `O=C(Nc1ccccc1O)c1ccc(NC(=O)C2CC2)cc1` came in with an apparent permeability coefficient (Papp) of 117 ×10⁻⁶ cm/s.
In turn, `N#Cc1ccccc1CSc1nc2ncc(Br)cc2[nH]1` registered an apparent permeability coefficient (Papp) of 415 ×10⁻⁶ cm/s.
`CCOc1ccc(-c2csc(N3CCC(C(N)=O)CC3)n2)cc1`: the Papp was above 1000 ×10⁻⁶ cm/s.
`CNc1sc(-c2cccc3ccccc23)nc1C#N` came in with a Papp of 716 ×10⁻⁶ cm/s.
Take `Cc1cccc(-n2cnc3cc(C(=O)N4CCCC(C(C)C)C4)ccc32)c1` (centres undefined): the Papp was above 1000 ×10⁻⁶ cm/s.
Regarding `Cc1nn2c(c1-c1ccccc1-c1ccccc1)N(CC1CC1)CCC2`, the Papp is above 1000 ×10⁻⁶ cm/s.
For `CC(C)c1ccc(CC(=O)N2CCCc3ncc(C(=O)Nc4cccnc4)cc32)cc1` the value was 734 ×10⁻⁶ cm/s; for `Cc1cc(C)cc(NS(=O)(=O)c2ccc3[nH]cc(C(=O)NCc4ccco4)c(=O)c3c2)c1`, 9.3 ×10⁻⁶ cm/s; for `O=C(Nc1nc(-c2ccccc2)cs1)c1ccncc1NS(=O)(=O)c1cccs1`, 83.2 ×10⁻⁶ cm/s.
In the case of `Cc1cccc(-n2nc(C)c3c2NC(=O)CSC3c2ccccc2Cl)c1` (centres undefined), the Papp was above 1000 ×10⁻⁶ cm/s.
For `CC(C)(C)c1ccc(-n2cnc3cc(C(=O)N4CCCCC4)ccc32)cc1` the value was 969 ×10⁻⁶ cm/s.
In turn, `O=C(Nc1ccccc1F)c1nc(S(=O)(=O)Cc2ccccc2F)ncc1Cl` displayed an apparent permeability (Papp) of 891 ×10⁻⁶ cm/s.
Take `CCN1CCN(C(=O)CCCn2nc(C)c3c(C)n(-c4ccc(C)cc4)nc3c2=O)CC1`: the Papp is 175 ×10⁻⁶ cm/s.
With `Cc1c(O)ccc2c1OC(C)(C)CC2`, the Papp stood at 540 ×10⁻⁶ cm/s. Against the preceding compound, the Papp is about 3.1-fold higher.
The figure for `COC(=O)C1=C(C)NC(=O)CC1C(=O)Nc1ccc(Cl)cc1` (centres undefined) is 126 ×10⁻⁶ cm/s.
The figure for `CCN(CCCO)CCCOc1ccc2c(Nc3cc(CC(=O)Nc4cccc(F)c4)[nH]n3)ncnc2c1` is 2.5 ×10⁻⁶ cm/s; for `COc1ccc(NC(=O)c2[nH]c(C)c(C(C)=O)c2C)cc1S(=O)(=O)Nc1cccc(C#N)c1` it is 30.9 ×10⁻⁶ cm/s; for `COc1cc(Cl)c(C)cc1NC(=O)CSc1ncc(S(=O)(=O)c2ccc(C(C)(C)C)cc2)c(=O)[nH]1` it is 16.2 ×10⁻⁶ cm/s.
`O=C(Nc1ccc(S(=O)(=O)Nc2nccs2)cc1)c1ccc2ccccc2c1` returned an apparent permeability (Papp) of 4.69 ×10⁻⁶ cm/s.
In turn, `COc1cc(-c2csc(N3CCC(C(N)=O)CC3)n2)cc(OC)c1OC` displayed a Papp of 257 ×10⁻⁶ cm/s. Against the preceding compound, the Papp is about 55-fold higher.
As to `O=C(NC1CC1)c1nc(-c2cccnc2)c2ccccn12`, the Papp worked out at 652 ×10⁻⁶ cm/s.
Consider `NC(=O)C1CCN(c2nc(-c3cccs3)cs2)CC1`, for which the Papp is 195 ×10⁻⁶ cm/s.
For `CN(C)c1cccc(-c2ncc(F)c(N3CCC(C(N)=O)CC3)n2)c1` the value was 599 ×10⁻⁶ cm/s.
Regarding `COC(=O)C1=C(C)NC(C)=C(C(=O)O[C@@H]2CCCN(Cc3ccccc3)C2)[C@@H]1c1cccc([N+](=O)[O-])c1`, the Papp was found to be 950 ×10⁻⁶ cm/s.
For `COC(=O)c1ccccc1C(=O)Nc1nc(-c2ccccc2)cs1` the value was 896 ×10⁻⁶ cm/s.
On to `CC(=O)c1c(C)[nH]c(C(=O)Nc2cccc([S+](=O)([O-])Nc3ccncc3)c2)c1C`, for which the Papp is 1.51 ×10⁻⁶ cm/s.
Take `Cc1cc(C)c(C(=O)Nc2cccc([S+](=O)([O-])N3CCCC3)c2)[nH]1`: the Papp worked out at 948 ×10⁻⁶ cm/s.
Take `O=S(=O)(Nc1cccc(C(F)(F)F)c1)c1ccc(NS(=O)(=O)c2ccc3c(c2)OCCO3)cc1`: the apparent permeability coefficient (Papp) was 668 ×10⁻⁶ cm/s.
The figure for `COc1ccc(Cn2c(=O)[nH]c3cc(C(=O)NCCCN4CCCCC4)ccc3c2=O)cc1` is 16.8 ×10⁻⁶ cm/s; for `O=c1c2ccccc2nc2n1CCC2` it is 44.2 ×10⁻⁶ cm/s; for `COc1ccc(NS(=O)(=O)c2ccc(C)c(C(=O)Nc3ccc4oc(C)nc4c3)c2)cc1` it is 737 ×10⁻⁶ cm/s.
Take `O=C(Nc1ccc([S+](=O)([O-])Nc2nccs2)cc1)c1ncn[nH]1`: the Papp was below 1 ×10⁻⁶ cm/s.
On to `O=C(c1cnc(N2CCCCC2)c2ccccc12)N1CCN(c2ccccn2)CC1`, for which the Papp is above 1000 ×10⁻⁶ cm/s.
In the case of `CSc1ccc(C(=O)c2[nH]c(=O)[nH]c2C)cc1`, the apparent permeability (Papp) came out at 28.7 ×10⁻⁶ cm/s.
The figure for `COc1ccc(C)cc1Nc1c2c(nc3ccccc13)CCC2` is above 1000 ×10⁻⁶ cm/s.
Consider `CC(O)(C#Cc1ccc2c(c1)N(c1nc(N)ncc1Cl)CC2)c1nccs1` (centres undefined), for which the Papp was found to be 516 ×10⁻⁶ cm/s.
The compound `COc1nccc(-c2nc(Nc3ccc(F)c(F)c3)c3ccccc3n2)c1Cl` returned a Papp of 30.3 ×10⁻⁶ cm/s.
